Source: the supplement of paper PMC11451515

Columns and labels:
Conditions in all cases: 48 h
P12-Ichikawa [1] = assay: AUC of viability dose-response curve (% viability x log10 dose units); higher = less sensitive
Method in brief: (§1)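 Seeding of medium-adapted leukemia cells was at 500 or 1000 cells/well in 1536-well plates, followed by 48 h at 37°C with library compounds in DMSO at 11 threefold doses from 47 μM to 0.79 nM. CellTiter-Glo One luminescence was normalised per plate to DMSO and cell-free wells and fitted as a four-parameter log-logistic function of log10 dose. Area under the curve was integrated by trapezoidal rule, with curves exceeding full viability scaled and curves failing quality control removed.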

NOMO1 [2] = assay: as above
Method in brief: as §1

SEM cells [3] = assay: as above
Method in brief: as §1

P12-Ichikawa [4] = assay: cell viability relative to DMSO control; higher = less cytotoxic
Method in brief: (§2)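 Leukemia cells (NOMO1 or SEM, 500 cells/well; P12-Ichikawa, 1000 cells/well) were seeded in 5 μl in 1536-well plates after at least four passages of adaptation to each medium. They received library compounds in DMSO by pin dosing, 11 threefold points from 47 μM to 0.79 nM. Luminescence with CellTiter-Glo One was read after 48 h at 37°C. Viability is stated per plate relative to DMSO wells, with cell-free wells as background.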

NOMO1 [5] = assay: as above
Method in brief: as §2

SEM cells [6] = assay: as above
Method in brief: as §2

COC1CCC(C(=O)c2ccc3nc4c(cc3c2)CCCO4)CC1 (centres undefined)
AUC of viability dose-response curve
Conditions | NOMO1 [2] | P12-Ichikawa [1] | SEM cells [3]
HPLM + 10% dialyzed FBS | 421 | 458 | 458
RPMI 5 mM glucose + 10% FBS | 430 | 453 | 422
RPMI 5 mM glucose + 10% dialyzed FBS | 437 | 460 | 438

CC(C)OC(=O)OCOP(=O)(CO[C@H](C)Cn1cnc2c(N)ncnc21)OCOC(=O)OC(C)C.O=C(O)C=CC(=O)O
NOMO1 [2]
Conditions | AUC of viability dose-response curve
HPLM + 10% dialyzed FBS | 446
RPMI 5 mM glucose + 10% FBS | 456
RPMI 5 mM glucose + 10% dialyzed FBS | 448

cell viability [%]
Conditions | NOMO1 [5] | P12-Ichikawa [4] | SEM cells [6]
HPLM + 10% dialyzed FBS, 0.000781 µM | 98.7 | 110 | 85
HPLM + 10% dialyzed FBS, 0.00234 µM | 120 | 120 | 99.6
HPLM + 10% dialyzed FBS, 0.00702 µM | 120 | 73.1 | 28.3
HPLM + 10% dialyzed FBS, 0.0211 µM | 105 | 125 | 121
HPLM + 10% dialyzed FBS, 0.0632 µM | 133 | 127 | 105
HPLM + 10% dialyzed FBS, 0.19 µM | 129 | 125 | 114
HPLM + 10% dialyzed FBS, 0.569 µM | 126 | 125 | 114
HPLM + 10% dialyzed FBS, 1.71 µM | 123 | 128 | 120
HPLM + 10% dialyzed FBS, 5.12 µM | 104 | 129 | 98.2
HPLM + 10% dialyzed FBS, 15.4 µM | 89.6 | 126 | 105
HPLM + 10% dialyzed FBS, 46.1 µM | 53.1 | 106 | 35.1
RPMI 5 mM glucose + 10% FBS, 0.000781 µM | 95.8 | 105 | 108
RPMI 5 mM glucose + 10% FBS, 0.00234 µM | 121 | 132 | 113
RPMI 5 mM glucose + 10% FBS, 0.00702 µM | 125 | 70.9 | 11.7
RPMI 5 mM glucose + 10% FBS, 0.0211 µM | 116 | 122 | 119
RPMI 5 mM glucose + 10% FBS, 0.0632 µM | 115 | 124 | 119
RPMI 5 mM glucose + 10% FBS, 0.19 µM | 128 | 122 | 124
RPMI 5 mM glucose + 10% FBS, 0.569 µM | 109 | 135 | 115
RPMI 5 mM glucose + 10% FBS, 1.71 µM | 118 | 129 | 115
RPMI 5 mM glucose + 10% FBS, 5.12 µM | 115 | 129 | 109
RPMI 5 mM glucose + 10% FBS, 15.4 µM | 103 | 115 | 94.8
RPMI 5 mM glucose + 10% FBS, 46.1 µM | 38.6 | 4.8 | 76.1
RPMI 5 mM glucose + 10% dialyzed FBS, 0.000781 µM | 117 | 97.6 | 77.3
RPMI 5 mM glucose + 10% dialyzed FBS, 0.00234 µM | 117 | 109 | 107
RPMI 5 mM glucose + 10% dialyzed FBS, 0.00702 µM | 112 | 85.9 | 23.8
RPMI 5 mM glucose + 10% dialyzed FBS, 0.0211 µM | 117 | 115 | 102
RPMI 5 mM glucose + 10% dialyzed FBS, 0.0632 µM | 124 | 122 | 113
RPMI 5 mM glucose + 10% dialyzed FBS, 0.19 µM | 122 | 124 | 104
RPMI 5 mM glucose + 10% dialyzed FBS, 0.569 µM | 128 | 124 | 97.9
RPMI 5 mM glucose + 10% dialyzed FBS, 1.71 µM | 124 | 124 | 124
RPMI 5 mM glucose + 10% dialyzed FBS, 5.12 µM | 114 | 128 | 104
RPMI 5 mM glucose + 10% dialyzed FBS, 15.4 µM | 102 | 121 | 102
RPMI 5 mM glucose + 10% dialyzed FBS, 46.1 µM | 15.1 | 95.2 | 32.2

OC[C@H]1O[C@H](C[C@@H]1O)[N]2C=NC3=C2\N=C/NC[C@H]3O
AUC of viability dose-response curve
Conditions | NOMO1 [2] | P12-Ichikawa [1] | SEM cells [3]
HPLM + 10% dialyzed FBS | 444 | 457 | 450
RPMI 5 mM glucose + 10% FBS | 465 | 457 | 466
RPMI 5 mM glucose + 10% dialyzed FBS | 434 | 475 | 469

Cn1cc(CNCC2CCN(c3ncc(C(=O)NO)cn3)CC2)c2ccccc21
AUC of viability dose-response curve
Conditions | NOMO1 [2] | P12-Ichikawa [1] | SEM cells [3]
HPLM + 10% dialyzed FBS | 268 | 262 | 231
RPMI 5 mM glucose + 10% FBS | 276 | 255 | 238
RPMI 5 mM glucose + 10% dialyzed FBS | 271 | 273 | 239

Cn1cc(/C=C/C(=O)c2cccc(F)c2)cc1/C=C/C(=O)NO
AUC of viability dose-response curve
Conditions | NOMO1 [2] | P12-Ichikawa [1] | SEM cells [3]
HPLM + 10% dialyzed FBS | 468 | 466 | 474
RPMI 5 mM glucose + 10% FBS | 470 | 475 | 476
RPMI 5 mM glucose + 10% dialyzed FBS | 468 | 462 | 469

SEM cells [6], HPLM + 10% dialyzed FBS
Conditions | cell viability [%]
0.000781 µM | 123
0.00234 µM | 133
0.00702 µM | 120
0.0211 µM | 129
0.0632 µM | 136
0.19 µM | 120
0.569 µM | 137
1.71 µM | 128
5.12 µM | 137
15.4 µM | 132
46.1 µM | 118

CC(C)N(CCNC(=O)CN1CCCC1=O)C(C)C
AUC of viability dose-response curve
Conditions | NOMO1 [2] | P12-Ichikawa [1] | SEM cells [3]
HPLM + 10% dialyzed FBS | 430 | 460 | 477
RPMI 5 mM glucose + 10% FBS | 456 | 453 | 460
RPMI 5 mM glucose + 10% dialyzed FBS | 461 | 435 | 476

NCC1(CC(=O)O)CCCCC1
AUC of viability dose-response curve
Conditions | NOMO1 [2] | P12-Ichikawa [1] | SEM cells [3]
HPLM + 10% dialyzed FBS | 468 | 466 | 460
RPMI 5 mM glucose + 10% FBS | 442 | 434 | 475
RPMI 5 mM glucose + 10% dialyzed FBS | 458 | 459 | 459

cell viability [%], SEM cells [6]
Conditions | HPLM + 10% dialyzed FBS | RPMI 5 mM glucose + 10% dialyzed FBS
0.000781 µM | 102 | 126
0.00234 µM | 113 | 122
0.00702 µM | 107 | 113
0.0211 µM | 122 | 119
0.0632 µM | 120 | 124
0.19 µM | 130 | 117
0.569 µM | 96.2 | 78
1.71 µM | 59.5 | 59.1
5.12 µM | 121 | 140
15.4 µM | 127 | 136
46.1 µM | 132 | 112

Cc1cc(CN2CCN(c3c(Br)cnc4[nH]c(-c5ccc(N6CCN(C)CC6)cc5)nc34)CC2)no1
AUC of viability dose-response curve
Conditions | NOMO1 [2] | P12-Ichikawa [1] | SEM cells [3]
HPLM + 10% dialyzed FBS | 377 | 329 | 317
RPMI 5 mM glucose + 10% FBS | 415 | 333 | 310
RPMI 5 mM glucose + 10% dialyzed FBS | 410 | 348 | 307

NOMO1 [5], RPMI 5 mM glucose + 10% FBS
Conditions | cell viability [%]
0.000781 µM | 120
0.00234 µM | 131
0.00702 µM | 120
0.0211 µM | 129
0.0632 µM | 138
0.19 µM | 117
0.569 µM | 113
1.71 µM | 70.2
5.12 µM | 102
15.4 µM | 78.1
46.1 µM | 80.6
